Read-outs that look alike come from different tables or passages of the source.
How the values were obtained:
[1] = tested on: hiPSC-CM (iCell Cardiomyocytes^2); experiment: RTCA CardioECR assessment (impedance and electrophysiology parameters); conditions: human, 72 h
In short: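 iCell^2 cardiomyocytes on fibronectin-coated ePlates monitored continuously by impedance for cell index, beating rate and amplitude. Field potential duration and spike amplitude were recorded from day 4–6 after monolayer formation. Data were double-normalized to DMSO control and baseline, with variability given as SD.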

[2] = tested on: hiPSC-CM (iCell Cardiomyocytes^2); experiment: Intracellular miRNA expression by RT-qPCR in hiPSC-CM pellets after 72-hour treatment; conditions: for fold induction at 0.1 µM / fold induction at 0.3 µM / fold induction at 3 µM / fold induction at 10 µM: Homo sapiens
In short: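 After 72-hour treatment and RTCA CardioECR assessment, total RNA from hiPSC-CM pellets was reverse transcribed, pre-amplified and quantified by TaqMan RT-qPCR against a 17-miRNA panel. Triplicates were pooled, so no statistical analysis was performed.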

[3] = tested on: hiPSC-CM (iCell Cardiomyocytes^2); conditions: human
Protocol: (§1) To extract total RNA from the culture media, hiPSC-CM were plated on 24-well plates by seeding 275,000 cells per mL per well. hiPSC-CM were maintained for 7 days in 200 µL of iCell^2 Maintenance Medium (iCell^2 MM; FCDI) for the 48-well ePlate and in 1 mL for 24-well plate, before drug treatment. Culture media change was performed every 2 days.
(§2) Stock solutions were diluted 1:1000 in iCell^2 MM before treatment and equilibrated at 37°C. As vehicle control, DMSO 0.1% was added to the media. Drug treatments on biological replicates (n = 3) were refreshed daily, and culture media was collected for further miRNA analysis. After 72 h, cell pellets were collected and stored at −80°C until total RNA extraction.
(§3) hiPSC-CM culture media was collected daily from 24-well plates, and centrifuged (+4°C, 11,000 rpm) for 5 min to remove cellular debris/cells. Total RNA was extracted from 300 µL of supernatant by Trizol/Chloroform phase separation and purification of total RNA by miRNeasy 96 Kit (Qiagen, Hilden, Germany). The spike-in control cel-miR-39 (Qiagen, Hilden, Germany) was used to check the quality of samples and PCR efficiency. DNase treatment (RNase-Free DNase Set (Qiagen, Hilden, Germany)) was applied according to the manufacturer’s instructions. After the RNA extraction, the same RT-qPCR protocol as for hiPSC-CM lysate was followed. Multiple unpaired t-tests were performed to compare delta CT-values (CT-values normalized to the housekeeping miRNAs) of the treatment groups to the DMSO control.
(§4) Analysis of miRNA in the culture media of hiPSC-CM treated with structural cardiotoxicants was performed at 24-, 48- and 72-hour post-treatment. […] The treatment concentrations were selected based on the MEC for CI to ensure that the preliminary evidence of cardiotoxicity in hiPSC-CMs could potentially lead to miRNA release in the culture media.

[4] = ref extensive literature search, cited from earlier work
[5] = tested on: hiPSC-CM (iCell Cardiomyocytes^2); experiment: miRNA in hiPSC-CM culture media by RT-qPCR at 24, 48 and 72 h post-treatment; conditions: 3 µM;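 further: medium RNA quantified by RT-qPCR, CT-values normalized to housekeeping miRNAs, compared against DMSO control, doses chosen from the MEC for CI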
Protocol: as §1, §2, §3, §4

[6] = 72 h, read-out: hsa-miR-7-5p fold change
[7] = 72 h, read-out: hsa-miR-29a-5p fold change
[8] = 72 h, read-out: hsa-miR-126-3p fold change
[9] = 72 h, read-out: hsa-miR-133b fold change
[10] = 72 h, read-out: hsa-miR-146b-5p fold change
[11] = 72 h, read-out: hsa-miR-182-5p fold change
[12] = 72 h, read-out: hsa-miR-185-3p fold change
[13] = 72 h, read-out: hsa-miR-187-3p fold change
[14] = 72 h, read-out: hsa-miR-208b-3p fold change
[15] = 72 h, read-out: hsa-miR-365a-5p fold change

Cc1[nH]c(=O)c(C#N)cc1-c1ccncc1 [Milrinone]
Field Potential Duration MEC [1]: 0.3 µM
Spike Amplitude (SA) MEC [1]: 0.1 µM
miRNAs hiPSC-CM pellet, MEC overall [2]: 0.1 µM
miRNAs upregulated at the MEC overall (hiPSC-CM pellet) [2]: miR-126-3p, miR-133b, miR-146b-5p
fold induction at 0.1 µM [2, 6]: 1.1
fold induction at 0.3 µM [2, 6]: 1.1
fold induction at 3 µM [2, 6]: 0.5
fold induction at 10 µM [2, 6]: 1.3
fold induction at 0.1 µM [2, 7]: 0.6
fold induction at 0.3 µM [2, 7]: 0.02
fold induction at 10 µM [2, 7]: 0.3
fold induction at 0.1 µM [2, 8]: 7.7
fold induction at 0.3 µM [2, 8]: 5.9
fold induction at 3 µM [2, 8]: 0.4
fold induction at 10 µM [2, 8]: 1.7
fold induction at 0.1 µM [2, 9]: 2.2
fold induction at 0.3 µM [2, 9]: 2.6
fold induction at 3 µM [2, 9]: 3.5
fold induction at 10 µM [2, 9]: 2.5
fold induction at 0.1 µM [2, 10]: 3.6
fold induction at 0.3 µM [2, 10]: 19
fold induction at 3 µM [2, 10]: 5
fold induction at 10 µM [2, 10]: 3
fold induction at 0.1 µM [2, 11]: 1.9
fold induction at 0.3 µM [2, 11]: 1.6
fold induction at 3 µM [2, 11]: 0.9
fold induction at 10 µM [2, 11]: 1.3
fold induction at 0.3 µM [2, 12]: 0.2
fold induction at 3 µM [2, 12]: 16.3
fold induction at 10 µM [2, 12]: 0.9
fold induction at 0.3 µM [2, 13]: 3.7
fold induction at 3 µM [2, 13]: 1.2
fold induction at 10 µM [2, 13]: 3.3
fold induction at 0.1 µM [2, 14]: 1.3
fold induction at 0.3 µM [2, 14]: 1.8
fold induction at 3 µM [2, 14]: 2.1
fold induction at 10 µM [2, 14]: 2.4
fold induction at 0.1 µM [2, 15]: 3.7
fold induction at 0.3 µM [2, 15]: 4.9
fold induction at 3 µM [2, 15]: 0.4
fold induction at 10 µM [2, 15]: 1.1
hsa-miR-7-5p fold change, intracellular ([2]; human, 72 h, 3 µM): 0.5
hsa-miR-182-5p fold change, intracellular ([2]; human, 72 h, 3 µM): 0.9
hsa-miR-185-3p fold change, intracellular ([2]; human, 72 h, 3 µM): 16.3
hsa-miR-365a-5p fold change, intracellular ([2]; human, 72 h, 3 µM): 0.4
miRNAs in culture media of hiPSC-CM, in words [3]: hsa-miR-7-5p and hsa-miR-126-3p, were upregulated after 72-hour exposure
miRNAs in culture media of hiPSC-CM, in words ([3]; 3 µM): for hsa-miR-126-3p, upregulation was also observed after 24-hour treatment
Cmax total ([4]; Supplementary Table 1): 620 to 1180 nM
Cmax total ([4]; Table 1): 620 to 1180 nM
hsa-miR-126-3p fold change, culture media ([5]; 24h): 3.9
hsa-miR-208b-3p fold change, culture media ([5]; 24h): 6.0
hsa-miR-[…] change, culture media ([5]; 24h): 3.5
hsa-miR-133b fold change, culture media ([5]; 48h): 0.8
hsa-miR-208b-3p fold change, culture media ([5]; 48h): 2.8
hsa-miR-[…] change, culture media ([5]; 48h): 1.4
hsa-miR-7-5p fold change, culture media ([5]; 72 h): 9.1
hsa-miR-126-3p fold change, culture media ([5]; 72 h): 2.5
hsa-miR-133b fold change, culture media ([5]; 72 h): 2.5
hsa-miR-208b-3p fold change, culture media ([5]; 72 h): 0.6
hsa-miR-[…] change, culture media ([5]; 72 h): 4.4
